In US6838580B2, “Opioid derivative” (Teikoku Seiyaku Co., Ltd., priority 2002, dated 2005):
Entries after “also recorded” stand apart in the source; their conditions may differ. Marks after values point to notes of the source that are not given here.

Assays:
μ-opioid receptor [1] = target: T1, μ-opioid receptor (Rattus norvegicus, UniProt P33535); experiment: Competitive receptor binding assay, synaptic membrane fraction, [3H]DAGO; conditions: for Ki: rat brain synaptic membrane, [3H]DAGO, read-out: Affinity of receptor (Ki, nM) μ; for Selectivity δ/μ: ratio Ki δ / Ki μ
T1 construct: synaptic membrane fraction obtained from the rat brain tissue; from tissue; host or cells: Sprague-Dawley rat brain without cerebellum, synaptic membrane (P2) fraction
T1 sequence (P33535 whole entry): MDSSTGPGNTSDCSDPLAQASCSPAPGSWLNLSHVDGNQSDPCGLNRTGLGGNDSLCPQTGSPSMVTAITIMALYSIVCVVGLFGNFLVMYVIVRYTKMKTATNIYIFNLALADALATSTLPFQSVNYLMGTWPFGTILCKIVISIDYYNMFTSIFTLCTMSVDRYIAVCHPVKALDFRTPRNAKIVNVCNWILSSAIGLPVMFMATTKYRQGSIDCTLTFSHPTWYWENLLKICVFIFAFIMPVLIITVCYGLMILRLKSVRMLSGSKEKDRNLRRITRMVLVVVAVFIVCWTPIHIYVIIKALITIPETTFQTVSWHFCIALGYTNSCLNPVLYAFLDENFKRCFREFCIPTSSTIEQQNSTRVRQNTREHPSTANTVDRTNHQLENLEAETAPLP
Procedure: Regarding the opioid peptide derivatives synthesized in Examples and Reference Examples, the μ- and δ-opioid receptor affinities were obtained by a competitive receptor assay using the synaptic membrane fraction obtained from the rat brain tissue according to the known methods. That is, Sprague-Dawley rats having an average weight of 150-180 g were killed by decapitation, the brain tissue from which cerebellum had been removed was homogenized in 0.32M sucrose and 1 mM HEPES (pH 7.5) containing 50 μg/ml soybean trypsin inhibitor, fractionated and centrifuged to obtain the synaptic membrane fraction (P2 fraction), which was pre-incubated in 50 mM HEPES (pH 7.5) containing 100 mM NaCl, 0.1 mM GDP and soybean trypsin inhibitor to remove endogenous ligands from the P2 fraction.
A competitive receptor binding assay (Radiolabeled receptor assay: RRA) based on an exchange reaction between a radioactive ligand for the synaptic membrane fraction and a peptide derivative to be tested was performed by using tritium-labeled [^3H]DAGO which is a μ-opioid receptor agonist and tritium-labeled [^3H]DPDPE which has the high δ-opioid receptor selectivity, and incubating an aliquot of the synaptic membrane with the peptide derivative to be tested for a period of time. Upon this, an exchange reaction between a ligand was performed under constant conditions, the radiation remaining in the synaptic membrane fraction was measured, and an amount of the ligand adsorbed onto the synaptic membrane fraction is calculated. By assuming that binding with a receptor occurs in competition between a radioactive ligand and an end ligand, the concentration (IC50) at which the maximum specific binding of the radioactive ligand is 50% inhibited was obtained, from which the affinity constant (Ki) was calculated by a method of Cheng et al. (Biochem. Pharmcol., 22, 3099(1973)).

μ-opioid receptor [2] = target: μ-opioid receptor (Cavia porcellus, UniProt A0ACM8Q262); experiment: Guinea pig ileum (GPI) assay, inhibition of electrically stimulated constriction; type: cell-based; conditions: agonist activity, read-out: GPI (IC50 ± S.E.)
Sequence of μ-opioid receptor (Cavia porcellus, UniProt A0ACM8Q262) (A0ACM8Q262 1-400): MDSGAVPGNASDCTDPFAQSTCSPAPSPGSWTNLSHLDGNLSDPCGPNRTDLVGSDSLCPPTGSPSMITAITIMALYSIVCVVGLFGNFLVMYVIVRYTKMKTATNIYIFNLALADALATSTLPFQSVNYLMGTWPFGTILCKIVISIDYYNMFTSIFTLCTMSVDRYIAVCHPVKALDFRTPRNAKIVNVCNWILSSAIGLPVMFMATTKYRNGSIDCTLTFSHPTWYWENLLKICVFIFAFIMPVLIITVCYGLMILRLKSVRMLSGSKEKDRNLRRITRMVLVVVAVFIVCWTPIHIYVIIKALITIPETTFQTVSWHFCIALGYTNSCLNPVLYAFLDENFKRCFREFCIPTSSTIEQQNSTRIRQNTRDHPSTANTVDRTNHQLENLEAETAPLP
Procedure: An assay test for agonist and antagonist activities of opioid compounds was performed using guinea pig ileum (GPI) and mouse seminiferous tract (MVD). That is, male guinea pigs having the weight of around 300 g were killed by exsanguination, an ileum section having a length of around 10 cm was isolated from an ileum close to an ileum-caecum region was held at 36° C. The ileum section was placed in a Magnus tube treated with an oxygen mixture (95% O2/5% CO2) and filled with Krebs solution in the state where the rest tension of 1 g was applied with an isotonic transducer and, then, was performed. Then, the electrical stimulation was applied at 30V for 0.5 ms. via electrode previously installed in the Magnus tube to constrict guinea pig ileum longitudinal muscle and, after constriction was stabilized, a peptidase inhibitor was added. Then, the present peptide derivative to be tested was added, the constriction of guinea pig ileum longitudinal muscle was taken by GrassFTO 0.3 transducer and monitored by an amplifier and a recorder connected to the transducer. The opioid activity was determined by constriction inhibition after addition of the peptide derivative to be tested and constriction inhibition cancellation by addition of naloxone, a selective opioid antagonist. […]

SD Male rats = experiment: Analgesic effect, Randoll-Seritto hind limb pressure method, intravenous administration; type: in vivo; conditions: rat, i.v.
Procedure: SD Male rats, weighing 110 to 130 g, were used. One group consisted of five rats. The analgesic effects were examined by a Randoll-Seritto method. […] The threshold was expressed in mm Hg. During the measurement, the upper limit of the pressure applied to a hind limb was 100 mm Hg in order to avoid damage of the tissues.
2) When administered intravenously (i.v.), a volume of 2 ml/kg weight was administered to a tail vein and, when administered subcutaneously (s.c.), a volume of 2 ml/kg weight was subcutaneously administered to the back. In the case of intravenous administration, a 1 mg/kg, 3 mg/kg or 10 mg/kg compound of Ex.1 administration group, a 1 mg/kg, 3 mg/kg or 10 mg/kg compound of Ex.4 administration group, a 2 ml/kg physiological saline administration group and a 5 mg/kg morphine hydrochloride administration group were made, respectively. In the case of subcutaneous administration, a 10 mg/kg, 30 mg/kg or 100 mg/kg compound of Ex.1 administration group, a 10 mg/kg, 30 mg/kg or 100 mg/kg compound of Ex.4 administration group, a 2 ml/kg physiological saline administration group and a 5 mg/kg morphine hydrochloride administration group were made, respectively. Observation of the analgesic action was performed 15 minutes, 30 minutes, 1 hour and 2 hours after administration in the case of intravenous administration, 30 minutes, 1 hour, 2 hours and 3 hours after administration in the case of subcutaneous administration, respectively.
In order to perform a significant difference test between respective administration groups and control groups, and between values at respective times before administration and after administration, a Dunnet multiple comparative test method was used. In the statistical processing for performing a significant difference test between morphine hydrochloride administration groups and control groups, Student t-test was used. For performing a significant difference test between values at respective times before administration and after administration in morphine hydrochloride administration groups, a Dunnet multiple comparative test method was used. A significant level was at 5 or lower % risk rate (two-tailed test).

[3] = 10 mg/kg, before administration

Compound | Ki (μ-opioid receptor [1]) | Selectivity δ/μ (μ-opioid receptor [1]) | IC50 (μ-opioid receptor [2]) | Threshold (mmHg) (SD Male rats; 1 mg/kg, before administration) | Threshold (mmHg) (SD Male rats; 3 mg/kg, 0.25 hr) | Threshold (mmHg) (SD Male rats; 3 mg/kg, 0.5 hr) | Threshold (mmHg) (SD Male rats; 3 mg/kg, 1 hr) | Threshold (mmHg) (SD Male rats; 3 mg/kg, 2 hr) | Threshold (mmHg) (SD Male rats; 3 mg/kg, before administration) | Change in escape reaction threshold / analgesic effect, in words (SD Male rats; 10 mg/kg) | Threshold (mmHg) (SD Male rats; 10 mg/kg, 0.25 hr) | Threshold (mmHg) (SD Male rats; 10 mg/kg, 0.5 hr) | Threshold (mmHg) (SD Male rats; 10 mg/kg, 1 hr) | Threshold (mmHg) (SD Male rats; 10 mg/kg, 2 hr) | Threshold (mmHg) (SD Male rats; [3]) | Change in escape reaction threshold / analgesic effect, in words (SD Male rats; all doses (1, 3, 10 mg/kg))
Cc1cc(O)cc(C)c1C[C@H](N)C(=O)NCCCCNC(=O)[C@@H](N)Cc1c(C)cc(O)cc1C.Cl.Cl [Ex.1, 1,4-Bis-(Dmt-amino)butane.2HCl] | 0.041 ± 0.003 nM | 1300 | 5.33 ± 0.65 nM | 48 ± 2 mmHg | 55 ± 2 mmHg | 56 ± 3 mmHg | 52 ± 4 mmHg | 49 ± 2 mmHg | 48 ± 2 mmHg | significant increase in the threshold was seen 15 minutes after administration; also recorded: exhibited an analgesic effect but is weaker as compared with the case of morphine 10 mg/kg administration and its duration time was shorter | 60 ± 2**^,$$ mmHg | 56 ± 3 mmHg | 54 ± 2 mmHg | 53 ± 2 mmHg | 48 ± 2 mmHg | –
Cc1cc(O)cc(C)c1C[C@H](N)C(=O)NCCCCCCNC(=O)[C@@H](N)Cc1c(C)cc(O)cc1C [Ex.4, 1,6-Bis(Dmt-amino)hexane.2HCl] | 0.053 ± 0.01 nM | 870 | – | – | 57 ± 4 mmHg | 54 ± 3 mmHg | 54 ± 5 mmHg | 53 ± 3 mmHg | 48 ± 2 mmHg | – | 54 ± 3 mmHg | 53 ± 3 mmHg | 57 ± 2 mmHg | 52 ± 2 mmHg | 49 ± 2 mmHg | significant change in the threshold was not seen at any measuring time at any dose; also recorded: no analgesic effect was seen
